From US12202832B2, “Heterocyclic compounds having a calcium-sensing receptor antagonistic activity” (TAKEDA PHARMACEUTICAL COMPANY LIMITED, priority 2017, dated 2025) come the findings set out here.

What is called inhibition is the relative decrease from the control value, in per cent.

Data set [1] has as its system CYP3A. As to the kind of experiment: CYP induction (CYP3A activity in cryopreserved hepatocytes, P450-Glo CYP3A4 assay). The format is in vitro ADME. The conditions noted are these: % of positive control; inducibility by 10 μmol/L rifampicin defined as 100%; hepatocytes treated 3 days. How it is done:
Cryopreserved hepatocytes were thawed in a culture medium (In VitroGRO™ CP Medium, Celsis In Vitro Technologies, U.S.A.), and the resultant was added to BioCoat™ Matrigel®™ Matrix Thin-Layer 96 well (Becton, Dickinson and Company, U.S.A.) at a concentration of 40,000 cells/well. After culturing for 24 hours, the culture medium was removed, and replaced with an incubation medium (In VitroGRO™, HI Medium with Torpedo Antibiotic Mix, Celsis In Vitro Technologies, U.S.A.). Cells were cultured for an additional 3 days. The medium was removed on day 4, and the remained cells were treated in the induction medium containing a test compound for 3 days in the presence or absence of 10 μmol/L rifampicin. The induction medium was replaced every day. The test compound addition wells in the presence of 10 μmol/L rifampicin were used to evaluate the inhibitory effect of the test compound on the inducibility of the CYP3A activity by rifampicin. The CYP3A activity was evaluated by measuring luciferin generating amount after the addition of 2 μmol/L luciferin-IPA using IPA P450-Glo™ CYP3A4 assay systems (Promega Corporation, U.S.A.). All cultures were carried out under a humidified environment at 37° C., 5% CO2. The inducibility by rifampicin was defines as 100%, and the inducibility of the test compound (% of positive control) was calculated from the following equation: [(luciferin fluorescence intensity in the absence of rifampicin and the presence of test compound)−(luciferin fluorescence intensity in the absence of rifampicin and test compound)/(luciferin fluorescence intensity in the presence of rifampicin and the absence of test compound)−(Luciferin fluorescence intensity in the absence of rifampicin and test compound)]×100.

The target in data set [2] is T1, human CaSR (Homo sapiens, UniProt P41180).
T1 construct: expressed in transfected cells; host or cells: CHO cells
T1 sequence (P41180 20-1078): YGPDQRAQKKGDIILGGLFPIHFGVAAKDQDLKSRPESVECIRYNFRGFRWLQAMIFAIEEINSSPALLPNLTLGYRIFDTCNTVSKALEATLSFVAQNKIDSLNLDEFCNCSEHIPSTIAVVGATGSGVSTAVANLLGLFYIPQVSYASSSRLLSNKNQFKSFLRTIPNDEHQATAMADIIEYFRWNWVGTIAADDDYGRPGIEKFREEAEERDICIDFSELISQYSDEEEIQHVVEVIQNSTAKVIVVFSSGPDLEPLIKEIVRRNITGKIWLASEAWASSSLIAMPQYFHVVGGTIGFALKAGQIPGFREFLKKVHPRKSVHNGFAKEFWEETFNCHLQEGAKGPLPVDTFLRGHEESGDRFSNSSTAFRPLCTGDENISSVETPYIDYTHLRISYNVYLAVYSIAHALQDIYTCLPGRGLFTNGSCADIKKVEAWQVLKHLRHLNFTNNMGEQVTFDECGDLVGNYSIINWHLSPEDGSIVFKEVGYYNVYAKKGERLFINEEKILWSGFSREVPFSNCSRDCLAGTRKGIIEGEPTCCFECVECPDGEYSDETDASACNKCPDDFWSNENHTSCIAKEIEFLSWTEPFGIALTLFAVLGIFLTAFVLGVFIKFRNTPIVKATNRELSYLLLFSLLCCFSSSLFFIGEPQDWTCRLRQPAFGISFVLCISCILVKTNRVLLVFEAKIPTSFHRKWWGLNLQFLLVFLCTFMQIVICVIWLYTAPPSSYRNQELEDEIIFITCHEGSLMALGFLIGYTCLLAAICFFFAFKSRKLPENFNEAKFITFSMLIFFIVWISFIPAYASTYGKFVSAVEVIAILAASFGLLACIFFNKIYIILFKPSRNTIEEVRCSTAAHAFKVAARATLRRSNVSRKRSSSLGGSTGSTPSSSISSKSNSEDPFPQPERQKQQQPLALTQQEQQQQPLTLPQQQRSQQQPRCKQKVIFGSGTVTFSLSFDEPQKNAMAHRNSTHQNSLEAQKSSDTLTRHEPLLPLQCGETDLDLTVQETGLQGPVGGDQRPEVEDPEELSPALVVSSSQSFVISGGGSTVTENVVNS
In words: Human CaSR antagonist activity (NFAT-Luciferase reporter in CHO cells). It is filed as cell-based. The conditions noted are these: CHO, CaCl2 final 1.3 mM, 100% = reference antagonist at 10 μM, read-out: Inhibition rate (%) at 3.3 μM. How it is done:
CaSR antagonist activity measurement was performed using Bright-Glo Luciferase assay system (Promega Corporation). CHO cells in which human CaSR and NFAT-Luciferase reporter gene were forcibly expressed were suspended in MEM alpha (Wako Pure Chemical Industries, Ltd.) containing 10% dialyzed serum (HyClone). The cells in suspension was seeded in 384-well white plate (Corning) at 10,000/20 μL/well, and cultured in an incubator of 37° C., 5% CO2 for one day. A diluent of Test compound was prepared with assay buffer (MEM alpha containing 10 mM HEPES (Life Technologies) and 10% dialysis serum). The diluent was added to the plate at 5 μL/well and allowed to stand at 37° C. for 10 minutes. Further, a diluent of 7.8 mM CaCl2 prepared with assay buffer (final concentration 1.3 mM) was added at 5 μl/well and allowed to stand in an incubator of 37° C., 5% CO2 for 2 hours. Bright-Glo reagents (Promega Corporation) were added at 10 μL/well, and the obtained mixture was stirred for 5 minutes, and then luminescence intensity was measured using Multi-label reader Envision (PerkinElmer, Inc.). The activity (%) of the test compound was calculated with the definitions in which the luminescence intensity when DMSO is added in place of the test compound is defined as 0% inhibition; and the luminescence intensity when (5R)—N-(1-ethyl-1-(4-ethylphenyl)propyl)-2,7,7-trimethyl-5-phenyl-4,5,6,7-tetrahydropyrazolo[1,5-a] Pyrimidine-3-carboxamide at final concentration of 10 μM is added is defined as 100% inhibition.

SMILES strings stand for the structures.

As for `CCc1ccc([C@@](CC)(NC(=O)c2c(C)nn3c2N[C@@H](c2ccccc2)CC3(C)C)C(=O)N[C@@H](C)C(N)=O)cc1` [Example 1, (5R)-N-((2R)-1-(((2S)-1-Amino-1-oxopropan-2-yl)amino)-2-(4-ethylphenyl)-1-oxobutan-2-yl)-2,7,7-trimethyl-5-phenyl-4,5,6,7-tetrahydropyrazolo[1,5-a]pyrimidine-3-carboxamide], the Inducibility in data set [1] turned out to be 15.3%. In data set [2], the inhibition at 3.3 µM was 103%.
